Experiments:
[1] = tested on: LPS-Induced TNF-α Production From the Murine Cell Line WEHI-265; assay: In vitro inhibition of LPS-induced TNF-α production from the murine cell line WEHI-265; type: cell-based; conditions: Mus musculus, WEHI-265 cells, LPS from E. coli 0111:B4, 20-24 h incubation
Protocol: This test procedure is a standard test used to determine anti-TNF-α activity and to evaluate the usefulness of said compounds for counteracting the biological effects of TNF-α.
1. In Vitro Study: Inhibition of LPS-Induced TNF-α
Production From the Murine Cell Line WEHI-265
1) Cells (obtained from cell cultures containing≤10^6 cells/ml) are suspended at 0.2×10^6 cells/ml in complete medium (RPMI1640, with 10% FCS, 10^-5 M 2-ME, 2 mM glutan-fine and 10 mM HEPES buffer) and plated in CoStar 24 well plates (1.0 ml/well).
2) Compounds are dissolved in the appropriate vehicle at 400 times the concentration to be tested, and 5 μl of compound is added to the wells.
3) LPS (from E. coli 0111:B4) is diluted to 6 μg/ml and 1.0 ml is added to wells.
4) Plates are incubated 20-24 hours in 37° CO2 incubator.
5) Supernatant fluids are collected and analyzed for TNF content as described in J. Immunol., 142:3884.

[2] = tested on: LPS/Galactosamine-Induced Lethality; assay: In vivo inhibition of LPS/galactosamine-induced lethality in mice; design: species or system mice (C57BI/6J); conditions: 25 mg/kg oral or i.p. one hour before LPS (100 ng) and d-galactosamine (8 mg) i.p.; survival at 24 hours
Protocol: This test procedure is a standard test used to determine activity against septic shock.
3. In Vivo Study: Inhibition of LPS/Galactosamine-Induced Lethality.
1) Mice (C57BI/6J males, 6-8 weeks of age) are dosed with the indicated compound (dissolved in CMC suspension vehicle; compounds are given orally or i.p. one hour before challenge with LPS and d-galactosamine).
2) Mice are challenged i.p. with a mixture of LPS (from E. coli 0111:B4; 100 ng) and d-galactosamine (8 mg).
3) Survival is determined 24 hours after challenge. See procedure published in J. Exp. Med. 165:657 (1987)

LPS-Induced Serum TNF = assay: In vivo inhibition of LPS-induced serum TNF in mice; design: species or system mice (C57BI/6J); conditions: Mus musculus, 1.5 h; 25 mg/kg oral or i.p. one hour before LPS (50 μg i.p.); bled 90 min after LPS; ELISA; values may have a wide margin of error
Protocol: In addition to the in vitro test described above, the following in vivo test was also performed on several of the compounds of the present invention.
1. In Vivo Study: Inhibition of LPS-Induced Serum TNF
Mice (C57BI/6J males, 6-8 weeks of age) are dosed with the indicated compound (dissolved in CMC suspension vehicle; compounds are given orally or i.p. one hour before LPS challenge).
Mice are bled 90 min after LPS challenge.
4) Sera are analyzed for TNF content by ELISA as described in J. Immunol.

Row | SMILES | inhibition at 10 µM [1] [%] | # DEAD/TOTAL AT 25 MG/KG [2] | inhibition in vivo at 25 mg/kg (LPS-Induced Serum TNF) [%]
1 | C=CCC(CN(C)C(C)=O)C1c2ccccc2COc2ccccc21 (stereo not shown) [IJ] | 34 | – | –
2 | CCCC(CN(C)C(C)=O)C1c2ccccc2COc2ccccc21 (stereo not shown) [Compound K5] | 46 | 10/10 | –
3 | CCCC(CNC)C1c2ccccc2CCc2ccc(Cl)cc21 (stereo not shown) [Compound K7] | 39 | – | 58
4 | CCOC(CNC)C1c2ccccc2CCc2ccccc21 (stereo not shown) [IG] | 35 | 7/9 | 51
5 | CCCC(CN(C)C(=O)OCC)C1c2ccccc2COc2ccccc21 (stereo not shown) [Compound K4] | 48 | – | –
6 | C=CCC(CN(C)C)C1c2ccccc2CCc2ccc(Cl)cc21 (stereo not shown) [IM] | 50 | – | –
7 | CCCC(CN(C)C)C1c2ccccc2CCc2ccc(Cl)cc21 (stereo not shown) [Compound K6] | 64 | – | –
8 | C=CCC(CN(C)C(=O)OCC)C1c2ccccc2COc2ccccc21 (stereo not shown) [IK] | 31 | – | –
9 | CCOC(CN(C)C)C1c2ccccc2CCc2ccccc21 (stereo not drawn) [Compound IB, β-ethoxy-10,11-dihydro-N, N-dimethyl-5 H-dibenzo[a,d]cycloheptene-5-ethanamine] | 35 | 8/10 | 25
10 | CCCC(CN(C)C)C1c2ccccc2COc2ccccc21 (stereo not shown) [Compound K2] | 54 | 7/10 | 40
11 | C=CCC(CN(C)C)C1c2ccccc2COc2ccccc21 (stereo not shown) [IH] | 23 | – | 30
12 | C=CCC(CNC)C1c2ccccc2COc2ccccc21 (stereo not shown) [Compound IA, N-methyl-2-[6,11-dihydro-dibenzo[b,e]oxepin-11-yl]-pent-4-en-1-amine] | 54 | – | 44
13 | C=CCC(CNC)C1c2ccccc2CCc2ccc(Cl)cc21 (stereo not shown) [IN] | 28 | – | –
14 | CN(C)CC(O)C1c2ccccc2CCc2ccccc21 (stereo not shown) [IF] | 4 | 8/10 | 24
15 | C=CC(CCN(C)C)C1c2ccccc2CCc2ccccc21 (stereo not shown) [Compound IC, 3-(10,11-dihydro-5H-dibenzo[a,d]cyclohepten-5-yl)-N,N-dimethyl-4-pentenamine] | 46 | – | –
16 | C=CCC(CN(C)C(C)=O)C1c2ccccc2CCc2ccc(Cl)cc21 (stereo not shown) [IL] | 49 | – | 42
17 | CCCC(CNC)C1c2ccccc2COc2ccccc21 (stereo not shown) [Compound K3, N-methyl-2-[6,11-dihydro-dibenzo[b,e]oxepin-11-yl]-pentanamine] | 73 | – | 27
18 | CNCCC1c2ccccc2CCc2ccccc21 [Compound K1] | 15 | 1/10 | 71
19 | CCOC(C(=O)N(C)C)C1c2ccccc2CCc2ccccc21 (stereo not shown) [Compound IE, 2-ethoxy-2-[10,11-dihydro-5H-dibenzo[a,d]cyclohepten-5-yl]-N,N-dimethyl-acetamide] | 49 | 10/10 | 37

— patent US5574173A, “Tricyclic derivatives, compositions and methods of use” (Schering Corporation, priority 1993, dated 1996)
